Results taken from ChEMBL document CHEMBL1201861, “Genomics of Drug Sensitity in Cancer screening data, Wellcome Trust Sanger Institute”.

Experiments:
Test in all cases: cells
[1] = system: P31-FUJ; assay type: functional, cell-based, Homo sapiens; details: Homo sapiens, P31-FUJ;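 note: growth inhibition of P31-FUJ cells, read out with a viability assay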
Description: SANGER: Inhibition of human P31-FUJ cell growth in a cell viability assay.

[2] = system: MZ7-mel; assay type: functional, cell-based, Homo sapiens; details: Homo sapiens, MZ7-mel;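 note: growth inhibition of human MZ7-mel cells, measured by a cell viability assay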
Description: SANGER: Inhibition of human MZ7-mel cell growth in a cell viability assay.

[3] = system: KY821; assay type: functional, cell-based, Homo sapiens; details: Homo sapiens, KY821;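 note: growth inhibition of human KY821 cells, read out by a cell viability assay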
Description: SANGER: Inhibition of human KY821 cell growth in a cell viability assay.

[4] = system: HDLM-2; assay type: functional, cell-based, Homo sapiens; details: Homo sapiens, HDLM-2;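 note: cell viability assay measuring suppression of HDLM-2 proliferation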
Description: SANGER: Inhibition of human HDLM-2 cell growth in a cell viability assay.

[5] = system: D-502MG; assay type: functional, cell-based, Homo sapiens; details: Homo sapiens, D-502MG
Description: SANGER: Inhibition of human D-502MG cell growth in a cell viability assay.

[6] = system: SH-4; assay type: functional, cell-based; details: Homo sapiens;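 note: growth inhibition of SH-4 cells, read out with a cell viability assay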
Description: SANGER: Inhibition of human SH-4 cell growth in a cell viability assay.

[7] = system: KURAMOCHI; assay type: functional, cell-based, Homo sapiens; details: Homo sapiens, KURAMOCHI;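 note: growth inhibition of KURAMOCHI cells, read out with a cell viability assay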
Description: SANGER: Inhibition of human KURAMOCHI cell growth in a cell viability assay.

[8] = system: HCE-T; assay type: functional, cell-based, Homo sapiens; details: Homo sapiens, HCE-T;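 note: cell viability assay read-out, reporting inhibition of HCE-T cell growth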
Description: SANGER: Inhibition of human HCE-T cell growth in a cell viability assay.

[9] = system: GI-1; assay type: functional, cell-based, Homo sapiens; details: Homo sapiens, GI-1;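 note: growth inhibition of human GI-1 cells, measured with a cell viability readout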
Description: SANGER: Inhibition of human GI-1 cell growth in a cell viability assay.

[10] = system: HCE-4; assay type: functional, cell-based; details: Homo sapiens;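 note: cell viability assay measuring inhibition of growth in the human HCE-4 cell line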
Description: SANGER: Inhibition of human HCE-4 cell growth in a cell viability assay.

[11] = system: COLO-668; assay type: functional, cell-based, Homo sapiens; details: Homo sapiens, COLO-668
Description: SANGER: Inhibition of human COLO-668 cell growth in a cell viability assay.

[12] = system: OVCAR-4; assay type: functional, cell-based, Homo sapiens; details: Homo sapiens, OVCAR-4;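 note: growth inhibition of human OVCAR-4 cells, measured with a cell viability assay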
Description: SANGER: Inhibition of human OVCAR-4 cell growth in a cell viability assay.

[13] = system: Ramos-2G6-4C10; assay type: functional, cell-based, Homo sapiens; details: Homo sapiens, Ramos-2G6-4C10;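 note: growth inhibition of the cell line, measured by a cell viability read-out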
Description: SANGER: Inhibition of human Ramos-2G6-4C10 cell growth in a cell viability assay.

[14] = system: KGN; assay type: functional, cell-based, Homo sapiens; details: Homo sapiens, KGN;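 note: growth inhibition of KGN cells, read out with a cell viability assay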
Description: SANGER: Inhibition of human KGN cell growth in a cell viability assay.

[15] = system: COLO-800; assay type: functional, cell-based, Homo sapiens; details: Homo sapiens, COLO-800;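 note: growth inhibition of COLO-800 cells, read out with a cell viability assay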
Description: SANGER: Inhibition of human COLO-800 cell growth in a cell viability assay.

[16] = system: MMAC-SF; assay type: functional, cell-based; details: Homo sapiens;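 note: growth inhibition of human MMAC-SF cells, read out with a cell viability assay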
Description: SANGER: Inhibition of human MMAC-SF cell growth in a cell viability assay.

[17] = system: QIMR-WIL; assay type: functional, cell-based, Homo sapiens; details: Homo sapiens, QIMR-WIL;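 note: growth inhibition of QIMR-WIL cells, read out with a cell viability assay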
Description: SANGER: Inhibition of human QIMR-WIL cell growth in a cell viability assay.

[18] = system: EM-2; assay type: functional, cell-based, Homo sapiens; details: Homo sapiens, EM-2;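 note: growth inhibition of EM-2 cells, read out with a cell viability assay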
Description: SANGER: Inhibition of human EM-2 cell growth in a cell viability assay.

[19] = system: J-RT3-T3-5; assay type: functional, cell-based, Homo sapiens; details: Homo sapiens, J-RT3-T3-5;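 note: cell viability assay measuring growth inhibition of human J-RT3-T3-5 cells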
Description: SANGER: Inhibition of human J-RT3-T3-5 cell growth in a cell viability assay.

[20] = system: OCUB-M; assay type: functional, cell-based; details: Homo sapiens;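 note: growth inhibition of the cancer cell line, read out through a cell viability assay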
Description: SANGER: Inhibition of human OCUB-M cell growth in a cell viability assay.

[21] = system: SNU-C2B; assay type: functional, cell-based; details: Homo sapiens;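 note: cell viability readout used to measure compound-driven suppression of SNU-C2B cell proliferation, IC50 marking half-maximal growth inhibition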
Description: SANGER: Inhibition of human SNU-C2B cell growth in a cell viability assay.

[22] = system: SNB-75; assay type: functional, cell-based, Homo sapiens; details: Homo sapiens, SNB-75;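 note: cell viability assay measuring growth inhibition of human SNB-75 cells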
Description: SANGER: Inhibition of human SNB75 cell growth in a cell viability assay.

[23] = system: U-266; assay type: functional, cell-based, Homo sapiens; details: Homo sapiens, U-266
Description: SANGER: Inhibition of human U-266 cell growth in a cell viability assay.

[24] = system: GI-ME-N; assay type: functional, cell-based, Homo sapiens; details: Homo sapiens, GI-ME-N;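 note: growth inhibition of human GI-ME-N cells, read out with a cell viability assay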
Description: SANGER: Inhibition of human GI-ME-N cell growth in a cell viability assay.

[25] = system: no-11; assay type: functional, cell-based, Homo sapiens; details: Homo sapiens;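 note: growth inhibition of human NO-11 cells, read out with a cell viability assay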
Description: SANGER: Inhibition of human no-11 cell growth in a cell viability assay.

[26] = system: EW-18; assay type: functional, cell-based, Homo sapiens; details: Homo sapiens, EW-18; read-out: IC50;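 note: growth inhibition of EW-18 cells, read out by a cell viability assay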
Description: SANGER: Inhibition of human EW-18 cell growth in a cell viability assay.

[27] = system: SW 962; assay type: functional, cell-based, Homo sapiens; details: Homo sapiens, SW 962;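 note: growth inhibition of human SW962 cells, read out by a cell viability assay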
Description: SANGER: Inhibition of human SW962 cell growth in a cell viability assay.

[28] = system: KU812 cell line; assay type: functional, cell-based, Homo sapiens; details: Homo sapiens, KU812;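 note: growth inhibition of KU812 cells, read out with a cell viability assay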
Description: SANGER: Inhibition of human KU812 cell growth in a cell viability assay.

[29] = system: IA-LM; assay type: functional, cell-based; details: Homo sapiens;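 note: cell viability assay measuring growth inhibition of human IA-LM cells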
Description: SANGER: Inhibition of human IA-LM cell growth in a cell viability assay.

[30] = system: IST-SL1; assay type: functional, cell-based, Homo sapiens; details: Homo sapiens, IST-SL1;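 note: growth inhibition of human IST-SL1 cells, read out with a cell viability assay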
Description: SANGER: Inhibition of human IST-SL1 cell growth in a cell viability assay.

[31] = system: NB5; assay type: functional, cell-based, Homo sapiens; details: Homo sapiens, NB5;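 note: growth inhibition of NB5 cells, read out as cell viability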
Description: SANGER: Inhibition of human NB5 cell growth in a cell viability assay.

[32] = system: NTERA-2-cl-D1; assay type: functional, cell-based, Homo sapiens; details: Homo sapiens, NTERA-2-cl-D1;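 note: inhibition of cell growth, measured with a cell viability assay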
Description: SANGER: Inhibition of human NTERA-S-cl-D1 cell growth in a cell viability assay.

[33] = system: KLE; assay type: functional, cell-based; details: Homo sapiens;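 note: growth inhibition of human KLE cells, read out with a cell viability assay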
Description: SANGER: Inhibition of human KLE cell growth in a cell viability assay.

[34] = system: LB2518-MEL; assay type: functional, cell-based; details: Homo sapiens;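 note: growth inhibition of human LB2518-MEL cells, measured with a cell viability assay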
Description: SANGER: Inhibition of human LB2518-MEL cell growth in a cell viability assay.

[35] = system: NCI-H226; assay type: functional, cell-based, Homo sapiens; details: Homo sapiens, NCI-H226;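 note: cell viability read-out used to gauge growth inhibition of the cells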
Description: SANGER: Inhibition of human NCI-H226 cell growth in a cell viability assay.

[36] = system: UACC-257; assay type: functional, cell-based, Homo sapiens; details: Homo sapiens, UACC-257
Description: SANGER: Inhibition of human UACC-257 cell growth in a cell viability assay.

[37] = system: HCC1187; assay type: functional, cell-based, Homo sapiens; details: Homo sapiens, HCC1187;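 note: growth inhibition of HCC1187 cells, read out with a cell viability assay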
Description: SANGER: Inhibition of human HCC1187 cell growth in a cell viability assay.

[38] = system: ETK-1; assay type: functional, cell-based, Homo sapiens; details: Homo sapiens, ETK-1;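 note: growth inhibition of human ETK-1 cells, read out with a cell viability assay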
Description: SANGER: Inhibition of human ETK-1 cell growth in a cell viability assay.

[39] = system: MS-1; assay type: functional, cell-based, Homo sapiens; details: Homo sapiens, MS-1;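 note: growth inhibition of MS-1 cells, read out by cell viability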
Description: SANGER: Inhibition of human MS-1 cell growth in a cell viability assay.

[40] = system: MN-60; assay type: functional, cell-based, Homo sapiens; details: Homo sapiens, MN-60;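 note: growth inhibition of the MN-60 cell line, determined with a cell viability assay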
Description: SANGER: Inhibition of human MN-60 cell growth in a cell viability assay.

[41] = system: GAK; assay type: functional, cell-based, Homo sapiens; details: Homo sapiens, GAK;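 note: cell growth inhibition read out by a cell viability assay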
Description: SANGER: Inhibition of human GAK cell growth in a cell viability assay.

[42] = system: COR-L88; assay type: functional, cell-based, Homo sapiens; details: Homo sapiens, COR-L88;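 note: growth inhibition of COR-L88 cells, read out with a cell viability assay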
Description: SANGER: Inhibition of human COR-L88 cell growth in a cell viability assay.

[43] = system: CTV-1; assay type: functional, cell-based, Homo sapiens; details: Homo sapiens, CTV-1;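 note: growth inhibition of the cell line, read out with a cell viability assay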
Description: SANGER: Inhibition of human CTV-1 cell growth in a cell viability assay.

[44] = system: LXF-289 cell line; assay type: functional, cell-based; details: Homo sapiens
Description: SANGER: Inhibition of human LXF-289 cell growth in a cell viability assay.

[45] = system: RXF 393; assay type: functional, cell-based, Homo sapiens; details: Homo sapiens, RXF 393;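 note: growth inhibition of human RXF 393 cells, read out with a cell viability assay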
Description: SANGER: Inhibition of human RXF393 cell growth in a cell viability assay.

[46] = system: OCI-AML2; assay type: functional, cell-based, Homo sapiens; details: Homo sapiens, OCI-AML2;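 note: growth inhibition of OCI-AML2 cells, read out with a cell viability assay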
Description: SANGER: Inhibition of human OCI-AML2 cell growth in a cell viability assay.

[47] = system: KM12; assay type: functional, cell-based, Homo sapiens; details: Homo sapiens, KM12;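 note: KM12 cell growth inhibition, read out with a cell viability assay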
Description: SANGER: Inhibition of human KM12 cell growth in a cell viability assay.

[48] = system: NCI-H1355; assay type: functional, cell-based, Homo sapiens; details: Homo sapiens, NCI-H1355;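 note: growth inhibition of human NCI-H1355 cells, read out by a cell viability assay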
Description: SANGER: Inhibition of human NCI-H1355 cell growth in a cell viability assay.

[49] = system: A4-Fuk; assay type: functional, cell-based, Homo sapiens; details: Homo sapiens, A4-Fuk;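 note: growth inhibition of A4-Fuk cells, read out by a cell viability assay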
Description: SANGER: Inhibition of human A4-Fuk cell growth in a cell viability assay.

[50] = system: KG-1; assay type: functional, cell-based, Homo sapiens; details: Homo sapiens, KG-1;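 note: growth inhibition of KG-1 cells, read out by a cell viability assay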
Description: SANGER: Inhibition of human KG-1 cell growth in a cell viability assay.

Measured: IC50

COc1ccc(N(C(=O)Oc2c(C)cccc2C)c2ccnc(Nc3ccc(N4CCN(C)CC4)cc3)n2)c(OC)c1
4.88 µM: [48]
1.34 µM: [27]
5.09 µM: [2]
2.12 µM: [6]
< 0.02 µM: [18] | [43]
1.86 µM: [33]
0.289 µM: [32]
0.106 µM: [45]
3.25 µM: [24]
0.358 µM: [22]
2.24 µM: [7]
0.0467 µM: [34]
1.05 µM: [14]
1.27 µM: [44]
not listed: [50]
> 5.12 µM: all other assays above

NC(=O)c1cccc(-c2cc(Nc3ccc(OC(F)(F)F)cc3)ncn2)c1
0.235 µM: [18]
> 1.28 µM: all other assays above
